ChEMBL document CHEMBL1201862, “PubChem BioAssay data set” (2004)
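Tested at 5 concentrations; 48 h exposure; 96-well plates; endpoints linearly interpolated, else capped at highest concentration. The concentration for 50% growth inhibition is given as GI50.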 Active and inactive are the calls of the source. Rule as the data show it: active = GI50 up to about 1.1 µM and inactive = higher.

Assays:
Assay in all cases: NCI anticancer screen, dose series, 48 h
[1] = test system: HOP-62
[2] = test system: RXF 393
[3] = test system: HCT-15
[4] = test system: SW-620
[5] = test system: NCI-H23
[6] = test system: HL-60
[7] = test system: SNB-75
[8] = test system: NCI-H226
[9] = test system: PC-3
[10] = test system: SF-268
[11] = test system: HCC 2998
[12] = test system: K562
[13] = test system: MDA-MB-435
[14] = test system: SK-MEL-5
[15] = test system: DU-145
[16] = test system: MDA-N
[17] = test system: SN12C
[18] = test system: RPMI-8226
[19] = test system: Malme-3M
[20] = test system: EKVX

| SMILES | GI50 [1] | GI50 [2] | GI50 [3] [µM] | GI50 [4] | GI50 [5] | GI50 [6] | GI50 [7] | GI50 [8] | GI50 [9] | GI50 [10] | GI50 [11] | GI50 [12] | GI50 [13] | GI50 [14] | GI50 [15] | GI50 [16] | GI50 [17] | GI50 [18] | GI50 [19] | GI50 [20] |
| --- | --- | --- | --- | --- | --- | --- | --- | --- | --- | --- | --- | --- | --- | --- | --- | --- | --- | --- | --- | --- |
| CCOC(=O)N1[C@@H]2CCC[C@@H]2C(=O)[C@@H]2CCC[C@@H]21 | > 100 µM (inactive) | > 100 µM (inactive) | > 100 | > 100 µM (inactive) | > 100 µM (inactive) | > 100 µM (inactive) | > 100 µM (inactive) | > 100 µM (inactive) | > 100 µM (inactive) | > 100 µM (inactive) | > 100 µM (inactive) | > 100 µM (inactive) | > 100 µM (inactive) | > 100 µM (inactive) | > 100 µM (inactive) | > 100 µM (inactive) | > 100 µM (inactive) | > 100 µM (inactive) |  |  |
| Nc1nc(N)nc(-c2cnc3ccccc3c2)n1 | > 100 µM (inactive) | 94.2 µM (inactive) | > 100 | > 100 µM (inactive) | > 100 µM (inactive) |  | 85.7 µM (inactive) | > 100 µM (inactive) | > 100 µM (inactive) | > 100 µM (inactive) | > 100 µM (inactive) | > 100 µM (inactive) | > 100 µM (inactive) |  | > 100 µM (inactive) | > 100 µM (inactive) | > 100 µM (inactive) |  | > 100 µM (inactive) | 38.4 µM (inactive) |
| Fc1cc2nc3n(c2cc1F)C(c1c(F)cccc1F)SC3 (stereo not drawn) | 67.9 µM (inactive) | 26.9 µM (inactive) | 44 | 45 µM (inactive) | 43.9 µM (inactive) | 16.8 µM (inactive) | 31.4 µM (inactive) | 52 µM (inactive) | 37.3 µM (inactive) | 74 µM (inactive) | 68.4 µM (inactive) |  | 35.3 µM (inactive) | 17.3 µM (inactive) | 87.5 µM (inactive) | 35.6 µM (inactive) | 51.9 µM (inactive) | 34.5 µM (inactive) | 50.8 µM (inactive) |  |
| C=C1C(=O)OC2/C=C(\C)CC/C=C(\C)CC(OC(=O)/C(=C/CO)CO)[C@@H]12 (stereo partly drawn) |  | 7.19 µM (inactive) | 5.87 | 1.69 µM (inactive) | 13.7 µM (inactive) | 2.72 µM (inactive) | 12.3 µM (inactive) | 32.8 µM (inactive) | 16.9 µM (inactive) | 20.7 µM (inactive) | 18.7 µM (inactive) | 2.65 µM (inactive) | 5.75 µM (inactive) | 13 µM (inactive) | 20 µM (inactive) | 5.45 µM (inactive) | 13.6 µM (inactive) | 1.61 µM (inactive) | 2.38 µM (inactive) | 15.2 µM (inactive) |
| O=C(/C=C/c1ccc2c(c1)OCO2)CC(=O)C(=O)c1c[nH]c2ccccc12 | 41.6 µM (inactive) | 31.6 µM (inactive) | 36.8 | 29.4 µM (inactive) | 34.2 µM (inactive) | 29.2 µM (inactive) | 29.3 µM (inactive) |  | 37 µM (inactive) | 37.2 µM (inactive) | 16.3 µM (inactive) | 24.2 µM (inactive) | 24.3 µM (inactive) | 58.3 µM (inactive) | 42.9 µM (inactive) | 27.9 µM (inactive) | 45.8 µM (inactive) | 35.4 µM (inactive) | > 100 µM (inactive) | 38.5 µM (inactive) |
| O=C(O)c1cccc(S(=O)(=O)NCCO)c1 | > 100 µM (inactive) | > 100 µM (inactive) | > 100 | > 100 µM (inactive) | > 100 µM (inactive) | > 100 µM (inactive) | > 100 µM (inactive) | > 100 µM (inactive) | > 100 µM (inactive) | > 100 µM (inactive) |  | > 100 µM (inactive) | > 100 µM (inactive) | > 100 µM (inactive) | > 100 µM (inactive) | > 100 µM (inactive) | > 100 µM (inactive) | > 100 µM (inactive) | > 100 µM (inactive) | > 100 µM (inactive) |
| O=C(Cc1ccccc1)N/N=C1\C(=O)Nc2ccccc21 | > 100 µM (inactive) | > 100 µM (inactive) | 62.8 |  | 95.5 µM (inactive) |  | 37.2 µM (inactive) | 71.9 µM (inactive) | 70.5 µM (inactive) | 31.6 µM (inactive) | > 100 µM (inactive) | > 100 µM (inactive) | > 100 µM (inactive) | 95.9 µM (inactive) | > 100 µM (inactive) | > 100 µM (inactive) | 48.5 µM (inactive) |  | > 100 µM (inactive) | 72.1 µM (inactive) |
| Clc1ccc(Cc2nc3cc(CCN4CCN(c5ccccc5)CC4)ccc3[nH]2)cc1 | 15.4 µM (inactive) | 5.24 µM (inactive) | 15 | > 100 µM (inactive) | 13.8 µM (inactive) | 12.6 µM (inactive) | 12.8 µM (inactive) | 22.5 µM (inactive) | 18.6 µM (inactive) | 25.5 µM (inactive) |  | 5.93 µM (inactive) | 12.9 µM (inactive) | 12.6 µM (inactive) | 17.4 µM (inactive) | 15.3 µM (inactive) | 16 µM (inactive) | 4.6 µM (inactive) | 15.7 µM (inactive) | 22 µM (inactive) |
| COC(=O)C1=C(C(=O)OC)C(C(=O)c2ccccc2)N2N=C(c3ccc(Cl)cc3)C=CC12 (stereo not drawn) | > 100 µM (inactive) | 4.15 µM (inactive) | 9.62 | > 100 µM (inactive) | 26.1 µM (inactive) | 3.85 µM (inactive) |  | 13.9 µM (inactive) | 9.82 µM (inactive) | 6.55 µM (inactive) | > 100 µM (inactive) | 30.3 µM (inactive) | 9.44 µM (inactive) | 9.23 µM (inactive) | > 100 µM (inactive) | 15.3 µM (inactive) | 85.5 µM (inactive) | 3.95 µM (inactive) | 11.2 µM (inactive) | 8.81 µM (inactive) |
| O=C(NC1(C(=O)O)CCCC1)c1ccccc1 | > 100 µM (inactive) | > 100 µM (inactive) | > 100 | > 100 µM (inactive) | > 100 µM (inactive) | > 100 µM (inactive) |  | > 100 µM (inactive) | > 100 µM (inactive) | > 100 µM (inactive) | > 100 µM (inactive) | > 100 µM (inactive) | > 100 µM (inactive) | > 100 µM (inactive) | > 100 µM (inactive) | > 100 µM (inactive) | > 100 µM (inactive) | > 100 µM (inactive) |  | > 100 µM (inactive) |
| OC(c1ccc(-c2ccccc2)cc1)(c1ccc(-c2ccccc2)cc1)c1ccc(-c2ccccc2)cc1 | > 100 µM (inactive) | > 100 µM (inactive) | 4.56 |  | > 100 µM (inactive) | > 10 µM (inactive) |  |  | > 100 µM (inactive) | > 100 µM (inactive) |  | > 100 µM (inactive) | > 100 µM (inactive) | > 100 µM (inactive) | > 100 µM (inactive) | > 100 µM (inactive) | > 100 µM (inactive) | > 100 µM (inactive) |  | > 100 µM (inactive) |
| COC1=C2CC(C)CC(OC)C(OC(=O)CN)[C@H](C)/C=C(\C)C(OC(N)=O)C(OC)/C=C\C=C(/C)C(=O)NC(=CC1=O)C2=O (stereo partly drawn) | 0.942 µM (active) | 0.507 µM (active) | 0.899 | 0.065 µM (active) | 0.369 µM (active) | 0.123 µM (active) |  | 10.4 µM (inactive) | 1.1 µM (active) | 3.44 µM (inactive) | 1.9 µM (inactive) |  | 0.373 µM (active) | 0.855 µM (active) | 1.45 µM (inactive) | 0.443 µM (active) | 0.412 µM (active) | 0.902 µM (active) | 0.351 µM (active) | 0.838 µM (active) |
| CC(C)C(/C=C/c1ccc(Cl)cc1)=N\NC(=S)NN | 31.6 µM (inactive) | 15 µM (inactive) | 5.98 | 14.1 µM (inactive) | 20 µM (inactive) | 4.99 µM (inactive) | 22.9 µM (inactive) | 10.4 µM (inactive) | 36.5 µM (inactive) | 7.57 µM (inactive) | 44.2 µM (inactive) | 3.55 µM (inactive) | 10.7 µM (inactive) | 33 µM (inactive) | 27.5 µM (inactive) | 26.2 µM (inactive) | 14.1 µM (inactive) | 11.7 µM (inactive) | 25.2 µM (inactive) |  |
| O=C(CN1CCCCC1)c1ccc2[nH]c(=O)oc2c1 | > 100 µM (inactive) | > 100 µM (inactive) | > 100 | > 100 µM (inactive) | > 100 µM (inactive) | > 100 µM (inactive) | 0.957 µM (active) | > 100 µM (inactive) | > 100 µM (inactive) | > 100 µM (inactive) |  | > 100 µM (inactive) | > 100 µM (inactive) | > 100 µM (inactive) | > 100 µM (inactive) | > 100 µM (inactive) | > 100 µM (inactive) | > 100 µM (inactive) | > 100 µM (inactive) | > 100 µM (inactive) |
| O=c1c(C(c2ccccc2)c2c(O)oc3cc(O)ccc3c2=O)c(O)oc2cc(O)ccc12 | > 100 µM (inactive) | > 100 µM (inactive) | > 100 | > 100 µM (inactive) | > 100 µM (inactive) | > 100 µM (inactive) | > 100 µM (inactive) | > 100 µM (inactive) | > 100 µM (inactive) | > 100 µM (inactive) | > 100 µM (inactive) | > 100 µM (inactive) | > 100 µM (inactive) | 52 µM (inactive) | > 100 µM (inactive) | > 100 µM (inactive) | > 100 µM (inactive) |  | > 100 µM (inactive) | > 100 µM (inactive) |
